Results taken from US20250177481A1, “SCO-spondin-derived polypeptides for enhancing synaptic transmission” (AXOLTIS PHARMA, priority 2021, published 2025).
Positions of bridges follow the written chain, without caps; N, C: chain ends. No end group written: not given here.

What was measured:
pCREB = pCREB protein level in cortical samples of subchronic PCP mice (WES automated protein analysis); type: in vivo, Swiss CD-1 mice; conditions: PCP + NX218 5 mg/kg D14; PCP alone 44.17; n=5
Protocol: PCP (or saline for control group) was administered at a dose of 0.2 mg/kg by subcutaneous injections twice daily for 12 days (day 0 to day 11).
Approximately 5 minutes after the test, mice were anaesthetized with 5% isoflurane oxygen mixture. Brains were extracted immediately, then the cortex of each hemisphere were collected. Right and left cortices were transferred into clean pre-labelled microtubes and the exact weight of each sample was recorded. Finally, samples were stored at −80° C. for further analysis.
Brain samples were lysed with a defined buffer lysis consisting of CelLyticMT reagent with 1% of protease and phosphatase inhibitor cocktail (60 μL per well). Lysates were processed at +4° C. and stored at −80° C. at the end of the experiment. For each sample, the quantity of proteins was determined using the micro kit BCA (Pierce). Briefly, lysates were centrifuged and diluted at 1/20 in PBS and mixed, in equal volume, with a micro BCA. After an incubation at 60° C. for 1 hour, the quantity of proteins was measured at 562 nm with a spectrophotometer Nanovue (GE Healthcare) and compared with the standard of Bovine Serum Albumin curve (BSA, Pierce).
Automated protein analysis were performed using the WES™ system (ProteinSimple®): […]
Each protein was evaluated independently. […] 5 samples (biological replicates) per condition were analyzed.

[1] = tested on: thalamocortical synaptic response (ventrobasal thalamic nucleus to somatosensory cortex); test: fEPSP input-output (I/O) recordings in thalamocortical mouse brain slices; type: cell-based, C57Bl6/J mice; conditions: for Normalized fEPSP slope: % of max of vehicle I/O curve, mean of 10 slices
Protocol: Comparison of postsynaptic responses in control versus NX218 peptide conditions were assessed.
Five (C57Bl6/J) male mice 4-5 weeks-old were obtained from Charles River, France and housed in an animal facility. Animal care was compliant with national and local Ethics committee recommendations. Mice were deeply anesthetized by inhalation of isoflurane then decapitated. The dissected brain was quickly placed in ice-cold oxygenated (95% O2/5% CO2) solution containing 214 mM sucrose, 2.5 mM KCl, 1.25 mM NaH2PO4, 26 mM NaHCO3, 2 mM MgSO4, 2 mM CaCl2 and 10 mM D-glucose.
10 Thalamocortical slices (2 slices per mouse) were prepared as described in Agmon and Connors (1991) and Varela et al. (2013). After its recovery, the brain was placed on a support allowing to elevate the caudal part of the brain until dorsal surface forms a 10-degree angle with the horizontal plane. Then, a section at 55 degrees with respect to the midline was performed and the rostral part was removed. In the slicing chamber, the brain was glued on the sectioned face. Then, the brain was sliced with a thickness of 400 μm. Slices were immediately transferred to a holding chamber filled with an artificial cerebrospinal fluid (aCSF) composed by 124 mM NaCl, 2.5 mM KCl, 1.25 mM NaH2PO4, 26 mM NaHCO3, 2 mM MgSO4, 2 mM CaCl2 and 10 mM D-glucose. The holding chamber was continuously oxygenated and maintained at 35° C. After a recovery period of 30 min, slices were incubated at room temperature for a minimum of 30 min.
For electrophysiological recordings, a single slice was placed in the recording chamber (room temperature) submerged and continuously superfused at a constant rate (2 mL/min) with gassed (95% O2, 5% CO2) aCSF for the reminder of the experiment.
A bipolar tungsten stimulating electrode was placed in the ventrobasal nucleus of the thalamus (the ventrobasal nucleus of the thalamus contains mostly glutamatergic neurons and few GABAergic interneurons) and extracellular field potential was recorded in the somatosensory cortex using a glass microelectrode.
Synaptic transmission Input/Output (I/O) curves were constructed to assess changes in the synaptic transmission, using a range of stimulus intensities from 0 μA to 850 μA with 50 μA intervals. Increasing stimulation intensities results in a linear increase until a maximal plateau in vehicle conditions.
Signals were amplified with an Axopatch 200B amplifier (Molecular Devices, Union City, CA) digitized by a Digidata 1322A interface (Axon Instruments, Molecular Devices, US) and sampled at 10 kHz. Recordings were acquired using Clampex (Molecular Devices) and analyzed with Clampfit (Molecular Devices). Experimenters were blinded to treatment groups for all experiments.
NX218 or vehicle was delivered in the thalamic radiations region by fast focal perfusion. The system consists of syringes containing the respective solutions with tubing lines fusing to a low dead-volume manifold mounted to a micromanipulator. The tip (300-μm diameter) mounted to the manifold was located within a desired distance of less than 1 mm of the target region, with a flow rates of approximately 0.2 mL/min. Tubing lines were controlled by electrical pinch valves which were opened and closed by transistor-transistor logic signals sent out from the DigiData system and parameters set in the perfusion and recording protocol in Clampex 10.3.
Data were analyzed by measuring the slope of individual fEPSPs by linear fitting using Clampfit. The slope of fEPSPs was plotted against different intensities of stimulation (from 0 to 850 μA).

W-S-G-W-S-S-C-S-R-S-C-G [NX218] (WSGWSSCSRSCG; disulfide 7-11 (inferred))
pCREB protein level in cortical samples (pCREB): 68.67 % of control | change of fEPSP slope vs vehicle alone (whole I/O curve) ([1]; particularly for stimulation intensities from 150 to 450 μA): significant increase | Normalized fEPSP slope ([1]; stimulation intensity 0 µA): 0.37% | Normalized fEPSP slope ([1]; stimulation intensity 50 µA): 26.12% | Normalized fEPSP slope ([1]; stimulation intensity 100 µA): 54.34% | Normalized fEPSP slope ([1]; stimulation intensity 150 µA): 87.31% | Normalized fEPSP slope ([1]; stimulation intensity 200 µA): 99.95% | Normalized fEPSP slope ([1]; stimulation intensity 250 µA): 107.48% | Normalized fEPSP slope ([1]; stimulation intensity 300 µA): 111.20% | Normalized fEPSP slope ([1]; stimulation intensity 350 µA): 118.22% | Normalized fEPSP slope ([1]; stimulation intensity 400 µA): 118.91% | Normalized fEPSP slope ([1]; stimulation intensity 450 µA): 121.63% | Normalized fEPSP slope ([1]; stimulation intensity 500 µA): 121.16% | Normalized fEPSP slope ([1]; stimulation intensity 550 µA): 122.81% | Normalized fEPSP slope ([1]; stimulation intensity 600 µA): 121.42% | Normalized fEPSP slope ([1]; stimulation intensity 650 µA): 124.24% | Normalized fEPSP slope ([1]; stimulation intensity 700 µA): 124.14% | Normalized fEPSP slope ([1]; stimulation intensity 750 µA): 121.65% | Normalized fEPSP slope ([1]; stimulation intensity 800 µA): 120.97% | Normalized fEPSP slope ([1]; stimulation intensity 850 µA): 121.41%
